In US8501755B2, “Tetrahydropyridothienopyrimidine compounds and methods of use thereof” (Bayer Intellectual Property GmbH, priority 2006, dated 2013):

How the values were obtained:
Assay type in all cases: cell-based
A431 cells = assay: In vitro tumor cell proliferation assay (Cell Titer-Glo) in A431 cells; conditions: Homo sapiens, A-431, 72 h, A431 human epidermoid carcinoma overexpressing HER1; 72 hours exposure; read-out: IC50, activities in A431 cell lines
In short: (§1)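 Viability after 72 h drug exposure at 37 °C was read as CellTiter-Glo ATP luminescence, giving IC50. Cells (2.5×10^3/well, RPMI + 10% FBS) were compound-treated one day post-seeding, 0.1% DMSO final: A431 overexpresses HER1, N87 overexpresses HER2 and HER1.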

H1975 cells = assay: In vitro tumor cell proliferation assay (Cell Titer-Glo) in H1975 cells; conditions: NCI-H1975; H1975 human NSCLC expressing mutant HER1 (L858R,T790M); 72 hours exposure; read-out: IC50, activities in H 1975 cell lines
In short: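 After 72 h compound exposure at 37° C (top 10 uM down to 64 pM, 0.1% DMSO), viability of EGFR L858R/T790M-mutant H1975 cells was read as ATP luminescence.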

N87 = assay: In vitro tumor cell proliferation assay (Cell Titer-Glo) in N87 cells; conditions: N87 human gastric carcinoma overexpressing HER2 and HER1; 72 hours exposure; read-out: IC50, activities in N87 cell lines
In short: as §1

## CC(C)N(C/C=C/C(=O)N1CCc2c(sc3ncnc(Nc4ccc(Cl)c(Cl)c4)c23)C1)C(C)C [Example 209, N-(3,4-dichlorophenyl)-7-[(2E)-4-(diisopropylamino)but-2-enoyl]-5,6,7,8-tetrahydropyrido [4′,3′:4,5]thieno[2,3-d]pyrimidin-4-amine]
A431 cells
  IC50: 200 to 1000 nM
H1975 cells
  IC50: 200 to 1000 nM
N87
  IC50: < 200 nM
